{"source": "patent US20240216356A1", "about": "“TASTE MASKED COMPOSTIONS OF 2,4,6-TRIFLUORO-N-[6-(1-METHYL-PIPERIDINE-4-CARBONYL)-PYRIDIN-2-YL]-BENZAMIDE HEMISUCCINATE, AND ORALLY DISENTEGRATING TABLET COMPRISING THE SAME” (priority 2021, published 2024)", "key": {"[1]": {"assay": "Solubility of lasmiditan over the pH range of the oral cavity", "type": "physicochemical", "procedure": "Lasmiditan is highly soluble (dissolves readily in the mouth) but extremely bitter in taste, and has other negative sensory attributes, that preclude conventional ODT development. […] The efficacious dose is from 25 to 200 mg depending on patient weight or other factors. […] Extreme bitterness, mouth numbing, and other negative sensory attributes are present and persist for 30 minutes."}, "[2]": {"conditions": "current marketed immediate release tablets; cited from earlier work"}}, "data": [{"smiles": "CN1CCC(C(=O)c2cccc(NC(=O)c3c(F)cc(F)cc3F)n2)CC1", "note": "[Lasmiditan, 2,4,6-trifluoro-N-[6-(1-methyl-piperidin-4-ylcarbonyl)-pyridin-2-yl]-benzamide]", "values": [{"measurement": "solubility", "setting": "[1]; pH 5, aqueous buffer", "value": 35, "unit": "mg/mL"}, {"measurement": "solubility", "setting": "[1]; pH 6.8, aqueous buffer", "value": 9.8, "unit": "mg/mL"}, {"measurement": "onset of action (time to symptom relief)", "setting": "[2]", "value": "about 2 hours"}]}]}
